Test results reported in paper PMC9810167, “Novel dual LSD1/HDAC6 inhibitor for the treatment of cancer” (PLOS ONE, 2023).
Read-outs that look alike come from different tables or passages of the source.

Tests used:
MM1.R = experiment: Cell proliferation assay (Alamar Blue); type: cell-based; settings: MM.1R, Multiple Myeloma, 144 h
Method: (§1) Cells were seeded in NUNC 96-well tissue culture plates (Life Technologies) in […] culture medium and incubated at 37°C/ 5% CO2 to adhere to plastic for 18–24 h. […] One set of plates (designated for the 144 h read out) were centrifuged at low speed for 30 seconds, and respective compounds were replenished in fresh media and incubated for another 68–72 h at 37°C/ 5% CO2. […] The inhibition curve was then fitted by plotting % inhibition against log concentration in GraphPad Prism 5.0 (GraphPad Software, Inc.) and the GI50 value of compound was determined. Data are representative of at least two independent experiments.

H2171 = experiment: Cell proliferation assay (Alamar Blue); type: cell-based; settings: Homo sapiens, NCI-H2171; H2171, SCLC, 144 h
Method: as §1

H510A = experiment: Cell proliferation assay (Alamar Blue); type: cell-based; settings: Homo sapiens, NCI-H510A, SCLC, 144 h
Method: as §1

THP-1 = experiment: Cell proliferation assay (Alamar Blue); type: cell-based; settings: Homo sapiens; THP-1, Leukemia, 144 h
Method: as §1

Colo-289 = experiment: Cell proliferation assay (Alamar Blue); type: cell-based; settings: Colo-289, Melanoma, 144 h
Method: as §1

G362 = experiment: Cell proliferation assay (Alamar Blue); type: cell-based; settings: G362, Melanoma, 144 h
Method: as §1

SKMeI2 = experiment: Cell proliferation assay (Alamar Blue); type: cell-based; settings: SKMeI2, Melanoma, 144 h
Method: as §1

WM-266-4 = experiment: Cell proliferation assay (Alamar Blue); type: cell-based; settings: Homo sapiens; WM-266-4, Melanoma, 144 h
Method: as §1

Hep3B2 = experiment: Cell proliferation assay (Alamar Blue); type: cell-based; settings: Homo sapiens, Hep3B; Hep3B2, Hepatocellular Carcinoma, 144 h
Method: as §1

OCI-AML3 = experiment: Cell proliferation assay (Alamar Blue); type: cell-based; settings: Homo sapiens, OCI-AML-3; OCI-AML3, Leukemia, 144 h
Method: as §1

Hep-G2 = experiment: Cell proliferation assay (Alamar Blue); type: cell-based; settings: Homo sapiens, HepG2; Hep-G2, Hepatocellular Carcinoma, 144 h
Method: as §1

HL60 = experiment: Cell proliferation assay (Alamar Blue); type: cell-based; settings: Homo sapiens, HL-60; HL60, Leukemia, 144 h
Method: as §1

HT144 = experiment: Cell proliferation assay (Alamar Blue); type: cell-based; settings: Homo sapiens, HT-144; HT144, Melanoma, 144 h
Method: as §1

H1341 = experiment: Cell proliferation assay (Alamar Blue); type: cell-based; settings: H1341, SCLC, 144 h
Method: as §1

HL60-MX1 = experiment: Cell proliferation assay (Alamar Blue); type: cell-based; settings: HL60-MX1, Leukemia, 144 h
Method: as §1

RPMI-7591 = experiment: Cell proliferation assay (Alamar Blue); type: cell-based; settings: RPMI-7591, Melanoma, 144 h
Method: as §1

[1] = system: HEL92.1.7 xenograft tumors; experiment: HEL92.1.7 erythroleukaemia xenograft model; type: in vivo; settings: for % tumor growth inhibition (TGI): PO, QD, 14 days
[2] = system: panel of non-small lung cancer, melanoma, and hepatocellular carcinoma tumor cell lines; experiment: Cell proliferation assay, solid tumor cell line panel; type: cell-based; settings: 144 h; 6 days; range over cell lines; read-out: EC50 values across solid tumor panel
Method: as §1

acetylation of α-Tubulin = experiment: Western blot of tubulin acetylation in HEL92.1.7 cells; type: cell-based, human; settings: HEL92.1.7, 3 to 48 h, 8 point dose response from 10 μM
Method: Cells were harvested and washed twice with cold PBS after the indicated treatments. Cell pellets were lysed in 30μl of lysis buffer (50 mM Tris-HCl, pH 7.4, 150 mM NaCl, 1% Triton X-100, 0.1% SDS, 1 mM EDTA, 1 mM Na3VO4, 1 mM NaF, and protease inhibitor cocktail) for 30 min on ice. Lysates were centrifuged at 12,000 ×g for 20 min at 4°C, and the protein content in the supernatants was determined using the Bradford reagent (Bio-Rad). Equal amount of protein lysate was resolved by SDS-PAGE and transferred onto a nitrocellulose membrane (Bio-Rad). Membranes were blocked with 5% non-fat milk powder in PBS-Tween 20 buffer for 1 h, followed by incubation with primary antibody at 4°C overnight. Membranes were washed in PBST and then incubated with HRP-conjugated anti-goat or mouse anti- IgG (Cell Signalling Technology) antibody and detected using the Millipore ECL Western Blot substrate. β-actin was used as a loading control. Antibodies were obtained from the following sources: Acetyl-α- Tubulin (Cell Signalling Technology, […], 1:500), β-actin (Santa Cruz Biotechnology, sc47778, 1:2000), HRP-conjugated secondary antibodies (Santa Cruz Biotechnology, 1:2000 for β-actin blots, 1:1000 for all others). Blots shown are representative of at least two independent experiments.

hHDAC8 = hHDAC8 (Homo sapiens, UniProt Q9BY41); experiment: Thermal shift assay (SYPRO Orange); type: binding; settings: protein:compound 1:15; Tm without compound 41°C
Chain of hHDAC8 (Q9BY41 whole entry): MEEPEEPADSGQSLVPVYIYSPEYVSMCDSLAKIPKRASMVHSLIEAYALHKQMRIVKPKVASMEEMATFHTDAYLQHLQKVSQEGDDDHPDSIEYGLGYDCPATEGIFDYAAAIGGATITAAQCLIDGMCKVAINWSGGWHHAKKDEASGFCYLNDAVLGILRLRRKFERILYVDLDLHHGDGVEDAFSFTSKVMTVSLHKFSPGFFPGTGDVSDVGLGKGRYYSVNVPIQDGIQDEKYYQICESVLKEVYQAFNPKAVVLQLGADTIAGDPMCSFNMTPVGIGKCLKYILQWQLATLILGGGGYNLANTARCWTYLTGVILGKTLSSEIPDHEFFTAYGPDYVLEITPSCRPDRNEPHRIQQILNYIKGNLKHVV
Method: (§2) The melting temperature (Tm) of human LSD1 and HDAC8 proteins were determined by fluorescence based thermal shift assay. Reaction mixture containing 0.5 μM protein, 5X SYPRO™ Orange Protein Gel Stain (Thermo Fisher Scientific Cat: S6650), compound at 10-fold excess for hLSD1, 15-fold excess for hHDAC8. The final volume made up with respective protein buffers. All experiments were done in triplicates at 50 μL reaction volume. The samples heated from 15°C to 95°C with an increment of 1°C per 30sec using CFX96™ Real-Time PCR Detection system–C1000 Thermal Cycler (Bio-Rad). Filters custom configured to the optimal excitation (492 nm) and emission (610 nm) wavelengths for SYPRO orange dye. Protein denaturation monitored by the increase in fluorescence signal emitted by SYPRO Orange. The SYPRO Orange binds to the exposed hydrophobic regions of protein undergoing thermal denaturation and corresponding fluorescence emissions are recorded as melt curves. The temperature corresponding to the inflection point, Tm is determined by calculating the first derivative from melt curve using CFX manager 3.1 software (Bio-Rad).

human LSD1 = target: T1, human LSD1 (Homo sapiens, UniProt O60341); experiment: Thermal shift assay (SYPRO Orange); type: binding; settings: protein:compound 1:10; Tm in the absence of compound 43°C
T1 construct: Tm of full length LSD1 protein in the absence of compound was 43°C
Method: as §2

MM1.S xenograft = experiment: MM1.S multiple myeloma xenograft model; type: in vivo; settings: for TGI: 13 d
HDAC2 = target: T2, HDAC2 (Homo sapiens, UniProt Q92769); experiment: HDAC isoform inhibition assay (Reaction Biology); type: biochemical; settings: generated at Reaction Biology Corporation
T2 construct: purchased Reaction Biology Corporation (assay run at the CRO)
T2 sequence (Q92769 whole entry, canonical isoform): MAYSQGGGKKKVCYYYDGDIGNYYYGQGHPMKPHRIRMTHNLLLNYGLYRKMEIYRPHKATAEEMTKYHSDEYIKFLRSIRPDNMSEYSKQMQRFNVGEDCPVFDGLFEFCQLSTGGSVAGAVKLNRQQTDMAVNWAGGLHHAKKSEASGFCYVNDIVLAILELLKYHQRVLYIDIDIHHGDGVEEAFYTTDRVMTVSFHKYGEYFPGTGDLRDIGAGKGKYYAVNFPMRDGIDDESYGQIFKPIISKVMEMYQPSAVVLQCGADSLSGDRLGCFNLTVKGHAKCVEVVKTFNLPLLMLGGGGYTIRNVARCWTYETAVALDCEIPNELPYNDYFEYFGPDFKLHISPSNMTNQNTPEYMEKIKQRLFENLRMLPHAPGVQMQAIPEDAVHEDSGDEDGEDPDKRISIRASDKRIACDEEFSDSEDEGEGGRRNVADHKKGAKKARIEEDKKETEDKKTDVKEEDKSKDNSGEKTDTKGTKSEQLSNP
Method: (§3) Dose-response studies for HDAC isoforms were conducted at Reaction Biology Corporation. All assays are based on the same principle of a two-step reaction: first, the substrate with the acetylated lysine side chain is incubated with a sample containing HDAC enzyme, to produce the deacetylated products, which are then digested in the second step by the addition of the developer to produce the fluorescent signal proportional to the amount of deacetylated substrates. Recombinant proteins HDAC1, HDAC2, HDAC3, HDAC4, HDAC5, HDAC6, HDAC7, HDAC8, HDAC9, and HDAC10 were incubated with a test compound for 5min, and then the fluorophore-conjugated substrate was added to the wells and incubated for 30 min to 2 h for different HDACs. Reactions were performed in assay buffer (50 mM Tris-HCl, pH 8.0, 137 mM NaCl, 2.7 mM KCl, 1 mM MgCl2, 1 mg/mL BSA, 1% DMSO, pH 7.4) and fluorescence measurements were obtained approximately every 20 min for an hour using an Envision, Perkin-Elmer plate reader (Excitation 360 nm/Emission 460 nm). IC50 values and curve fits were obtained using (GraphPad Prism Software, Inc.).

HDAC9 = target: T3, HDAC9 (Homo sapiens, UniProt Q9UKV0); experiment: HDAC isoform inhibition assay (Reaction Biology); type: biochemical; settings: generated at Reaction Biology Corporation
T3 construct: purchased Reaction Biology Corporation (assay run at the CRO)
T3 sequence (Q9UKV0 whole entry, canonical isoform): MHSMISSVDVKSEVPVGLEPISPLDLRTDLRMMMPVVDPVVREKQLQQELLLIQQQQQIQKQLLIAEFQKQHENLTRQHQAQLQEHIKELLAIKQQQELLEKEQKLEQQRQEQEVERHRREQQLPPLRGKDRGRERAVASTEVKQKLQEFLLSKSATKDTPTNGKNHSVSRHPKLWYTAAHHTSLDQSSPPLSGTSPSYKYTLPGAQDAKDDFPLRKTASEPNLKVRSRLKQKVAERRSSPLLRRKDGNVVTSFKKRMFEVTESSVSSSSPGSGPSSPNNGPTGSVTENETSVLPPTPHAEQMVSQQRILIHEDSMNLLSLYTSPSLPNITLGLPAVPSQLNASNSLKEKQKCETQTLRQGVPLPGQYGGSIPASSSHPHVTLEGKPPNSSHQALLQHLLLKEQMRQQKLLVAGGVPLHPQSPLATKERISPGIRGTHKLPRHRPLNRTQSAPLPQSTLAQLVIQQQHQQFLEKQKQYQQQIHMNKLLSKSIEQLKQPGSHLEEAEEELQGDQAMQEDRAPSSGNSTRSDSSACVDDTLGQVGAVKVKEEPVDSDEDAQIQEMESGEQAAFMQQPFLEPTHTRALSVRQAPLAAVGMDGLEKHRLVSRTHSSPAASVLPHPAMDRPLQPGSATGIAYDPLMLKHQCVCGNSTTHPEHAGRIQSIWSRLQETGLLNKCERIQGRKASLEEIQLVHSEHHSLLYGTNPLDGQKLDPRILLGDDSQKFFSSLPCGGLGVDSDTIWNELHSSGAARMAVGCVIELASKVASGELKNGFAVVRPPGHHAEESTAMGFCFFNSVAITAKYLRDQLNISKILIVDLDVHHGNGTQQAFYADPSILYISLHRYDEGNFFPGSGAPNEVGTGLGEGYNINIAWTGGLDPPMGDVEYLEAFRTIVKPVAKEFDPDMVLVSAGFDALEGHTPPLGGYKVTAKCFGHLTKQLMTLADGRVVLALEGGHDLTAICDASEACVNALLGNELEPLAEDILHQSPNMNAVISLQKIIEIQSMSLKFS
Method: as §3

HDAC5 = target: T4, HDAC5 (Homo sapiens, UniProt Q9UQL6); experiment: HDAC isoform inhibition assay (Reaction Biology); type: biochemical; settings: generated at Reaction Biology Corporation
T4 construct: purchased Reaction Biology Corporation (assay run at the CRO)
T4 sequence (Q9UQL6 whole entry, canonical isoform): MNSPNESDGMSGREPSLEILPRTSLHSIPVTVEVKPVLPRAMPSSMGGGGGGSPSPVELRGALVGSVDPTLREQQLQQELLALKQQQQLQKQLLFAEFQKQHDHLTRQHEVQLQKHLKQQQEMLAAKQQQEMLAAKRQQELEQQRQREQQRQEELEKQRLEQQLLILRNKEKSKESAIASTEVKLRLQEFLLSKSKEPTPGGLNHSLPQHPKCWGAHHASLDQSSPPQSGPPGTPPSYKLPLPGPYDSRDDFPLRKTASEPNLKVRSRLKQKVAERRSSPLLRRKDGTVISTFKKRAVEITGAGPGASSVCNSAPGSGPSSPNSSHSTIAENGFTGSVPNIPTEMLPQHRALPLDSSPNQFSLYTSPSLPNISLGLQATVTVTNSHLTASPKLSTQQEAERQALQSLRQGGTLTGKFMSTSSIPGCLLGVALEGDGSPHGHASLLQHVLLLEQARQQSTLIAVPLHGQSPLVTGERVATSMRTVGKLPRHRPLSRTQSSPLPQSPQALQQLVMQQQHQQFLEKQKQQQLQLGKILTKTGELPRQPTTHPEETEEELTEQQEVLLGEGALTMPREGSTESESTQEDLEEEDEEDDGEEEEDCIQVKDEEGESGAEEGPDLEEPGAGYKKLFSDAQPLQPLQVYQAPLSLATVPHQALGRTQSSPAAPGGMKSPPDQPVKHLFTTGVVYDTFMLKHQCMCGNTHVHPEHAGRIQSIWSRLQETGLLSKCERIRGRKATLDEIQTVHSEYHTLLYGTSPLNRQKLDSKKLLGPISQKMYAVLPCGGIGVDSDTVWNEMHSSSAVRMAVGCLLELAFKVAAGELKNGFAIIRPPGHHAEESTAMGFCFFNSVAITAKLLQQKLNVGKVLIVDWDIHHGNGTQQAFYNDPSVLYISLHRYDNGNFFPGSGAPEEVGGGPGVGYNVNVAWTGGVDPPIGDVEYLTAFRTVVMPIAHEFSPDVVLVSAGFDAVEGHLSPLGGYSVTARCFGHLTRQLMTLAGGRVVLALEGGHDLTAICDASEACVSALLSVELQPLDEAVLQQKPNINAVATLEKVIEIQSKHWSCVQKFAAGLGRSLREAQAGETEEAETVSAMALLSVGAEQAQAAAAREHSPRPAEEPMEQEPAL
Method: as §3

HDAC7 = target: T5, HDAC7 (Homo sapiens, UniProt Q8WUI4); experiment: HDAC isoform inhibition assay (Reaction Biology); type: biochemical; settings: generated at Reaction Biology Corporation
T5 construct: purchased Reaction Biology Corporation (assay run at the CRO)
T5 sequence (Q8WUI4 whole entry, canonical isoform): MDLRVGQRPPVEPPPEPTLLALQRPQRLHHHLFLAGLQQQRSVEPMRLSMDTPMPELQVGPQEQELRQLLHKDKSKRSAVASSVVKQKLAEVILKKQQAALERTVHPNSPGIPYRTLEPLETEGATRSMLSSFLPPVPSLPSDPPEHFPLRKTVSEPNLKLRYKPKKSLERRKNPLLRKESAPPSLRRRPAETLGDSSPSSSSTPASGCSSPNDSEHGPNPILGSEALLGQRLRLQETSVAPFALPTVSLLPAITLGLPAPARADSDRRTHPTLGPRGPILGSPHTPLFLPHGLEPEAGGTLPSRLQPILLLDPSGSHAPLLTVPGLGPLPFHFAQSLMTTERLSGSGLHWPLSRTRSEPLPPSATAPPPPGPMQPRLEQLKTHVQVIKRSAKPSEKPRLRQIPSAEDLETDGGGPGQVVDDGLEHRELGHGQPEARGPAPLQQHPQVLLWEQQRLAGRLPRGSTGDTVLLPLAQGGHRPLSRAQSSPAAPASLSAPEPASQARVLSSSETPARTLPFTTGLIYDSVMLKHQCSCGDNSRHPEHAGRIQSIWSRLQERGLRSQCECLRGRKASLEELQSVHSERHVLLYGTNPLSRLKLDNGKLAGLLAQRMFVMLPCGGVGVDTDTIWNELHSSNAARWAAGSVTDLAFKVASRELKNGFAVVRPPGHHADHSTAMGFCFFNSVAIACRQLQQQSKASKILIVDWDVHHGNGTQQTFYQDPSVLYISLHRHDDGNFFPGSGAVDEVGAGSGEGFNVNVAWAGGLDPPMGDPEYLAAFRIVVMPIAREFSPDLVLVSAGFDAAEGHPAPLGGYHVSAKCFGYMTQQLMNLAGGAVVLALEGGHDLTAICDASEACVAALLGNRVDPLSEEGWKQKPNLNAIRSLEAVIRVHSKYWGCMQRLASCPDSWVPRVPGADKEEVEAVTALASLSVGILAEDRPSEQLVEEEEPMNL
Method: as §3

HEL 92.1.7 = experiment: Cell proliferation assay (Alamar Blue); type: cell-based, human; settings: for EC50: Homo sapiens
Method: as §1

remaining HDACs = experiment: HDAC panel HDAC1 to HDAC10, remaining HDACs (other than HDAC6 and HDAC8); type: biochemical; settings: about […] to >10 μM, read-out: IC50 against the remaining HDACs
Method: as §3

HDAC1 = target: T6, HDAC1 (Homo sapiens, UniProt Q13547); experiment: HDAC isoform inhibition assay (Reaction Biology); type: biochemical; settings: generated at Reaction Biology Corporation
T6 construct: purchased Reaction Biology Corporation (assay run at the CRO)
T6 sequence (Q13547 whole entry, canonical isoform): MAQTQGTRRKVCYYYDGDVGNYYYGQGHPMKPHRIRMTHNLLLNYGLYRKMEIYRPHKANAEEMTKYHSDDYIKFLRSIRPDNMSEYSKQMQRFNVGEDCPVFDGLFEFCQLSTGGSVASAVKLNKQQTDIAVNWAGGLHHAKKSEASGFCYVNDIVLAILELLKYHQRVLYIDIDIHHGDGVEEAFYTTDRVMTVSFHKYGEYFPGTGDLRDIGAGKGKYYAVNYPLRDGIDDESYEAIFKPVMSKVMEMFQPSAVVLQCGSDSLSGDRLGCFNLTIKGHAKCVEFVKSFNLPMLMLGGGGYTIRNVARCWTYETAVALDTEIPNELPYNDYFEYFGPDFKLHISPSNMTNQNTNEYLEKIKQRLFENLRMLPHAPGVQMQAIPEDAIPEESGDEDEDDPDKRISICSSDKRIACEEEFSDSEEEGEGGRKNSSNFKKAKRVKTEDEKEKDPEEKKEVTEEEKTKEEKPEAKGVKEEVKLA

CT-26 syngeneic tumors = experiment: CT-26 mouse colon cancer syngeneic model; type: in vivo, BALB/c mice; settings: 14 d
Method: For CT-26 syngeneic mouse colon cancer model female BALB/c (6–8 weeks old, Vivo Biotech, India) were used. 1x10^6 CT26 tumor cells in 100 μL of serum-free medium mixed with 1:1 ratio of matrigel were injected s.c. into the right flank of mice. […] During the experiment, body weights were measured 2–3 times a week and tumor volume was measured using callipers every other day in three dimensions. Tumor volume was calculated from the pi-based ellipsoid volume formula π/6*length*width*height. Mice were culled when the tumor volume reached either the ethical limit of 2000 mm^3 or if the tumor was ulcerated. The percentage change in tumor volume from baseline was used to assess the response to treatment. Tumor measurements were performed in a blinded manner throughout the study.

CD11b = experiment: Differentiation marker mRNA by RT-qPCR in HEL 92.1.7 cells; type: cell-based, human; settings: HEL92.1.7, 3–48 h
Method: (§4) Total RNA was isolated using the TRIzol (Thermo Fisher Scientific, Waltham, MA, USA) reagent according to the manufacturer's instructions. The obtained RNA was reverse-transcribed to synthesize the complementary DNA from RNA using High Capacity cDNA Reverse Transcription Kit (Applied Biosystems, U.S.). DyNAmo ColorFlash SYBR Green qPCR Kit (Thermo Fisher Scientific) was used with cDNA and gene specific primers at a final volume of 10 μL. Real-time quantitative PCR was performed for 40 cycles of 15 s each, at 95°C and 30 s at 60°C, using a CFX96 real time machine (Bio-Rad). All reactions were performed in duplicate and the data was calculated using the delta (delta Ct) method. The relative gene expression levels for a target gene was normalized to the expression of β-actin. All the primer sequences were procured from Eurofins Genomics India Limited. Primer sequences for the analysed genes are as follows: • beta Actin [NT], beta Actin [NT]. Gfi1b [NT], Gfi1b [NT], CD86 [NT], CD86 […], CD11b [NT]

CD86 = experiment: as above; type: cell-based, human; settings: HEL92.1.7, 3–48 h
Method: as §4

GFI1b = experiment: as above; type: cell-based, human; settings: HEL92.1.7, 3–48 h
Method: as §4

Structure (SMILES): O=C(NO)c1ccc(CCCN2CCC(CN[C@H]3C[C@@H]3c3ccccc3)CC2)cc1 (relative stereo) [JBI-097]
- EC50 (MM1.R): 29 nM
- EC50 (H2171): 2700 nM
- EC50 (H510A): 1060 nM
- EC50 (THP-1): 226 nM
- EC50 (Colo-289): 2180 nM
- EC50 (G362): 7.64 µM
- EC50 (SKMeI2): 1830 nM
- EC50 (WM-266-4): 6.83 µM
- EC50 (Hep3B2): 1300 nM
- EC50 (OCI-AML3): 30 nM
- EC50 (Hep-G2): 1100 nM
- EC50 (HL60): 1500 nM
- EC50 (HT144): 3.14 µM
- EC50 (H1341): 3.26 µM
- EC50 (HL60-MX1): 34 nM
- EC50 (RPMI-7591): 8.09 µM
- % tumor growth inhibition (TGI) ([1]; 25 mg/kg): 76%
- body weight loss ([1]; 50 mg/kg group, observed in 2 animals): 5–10%
- % tumor growth inhibition (TGI) ([1]; 50 mg/kg): 91%
- EC50 [2]: 1.06 to 8.09 µM
- acetylation of α-Tubulin (acetylation of α-Tubulin): time and concentration dependent increase
- Tm of HDAC8 incubated with compound (hHDAC8): 47 °C
- Tm of LSD1 incubated with compound (human LSD1): 55 °C
- TGI (MM1.S xenograft; JBI-097 12.5 mg/kg PO in combination with BTZ (0.5 mg/kg IP BIW)): 82%
- tolerability (MM1.S xenograft; JBI-097 12.5 mg/kg PO in combination with Pomalidomide): well tolerated
- TGI (MM1.S xenograft; JBI-097 12.5 mg/kg PO in combination with pomalidomide (2.5 mg/kg PO 5x/week)): 60%
- TGI (MM1.S xenograft; single agent, 12.5 mg/Kg PO QD): 23%
- IC50 (HDAC2): 3.95 µM
- IC50 (HDAC9): 3.43 µM
- IC50 (HDAC5): 1140 nM
- IC50 (HDAC7): 3.58 µM
- cell growth inhibition reached (plateau) (HEL 92.1.7; HEL92.1.7, 6 days of incubation, up to 10 μM): 100%
- EC50 (HEL 92.1.7; HEL 92.1.7, read-out: anti-proliferative EC50, HEL92.1.7, 3 days (72 h) of incubation): 722 nM
- EC50 (HEL 92.1.7; HEL 92.1.7, Leukemia, 144 h, read-out: EC50, 144hr): 49 nM
- IC50 (remaining HDACs): ≥ 1100 nM
- IC50 (HDAC1): 3.4 µM
- TGI (CT-26 syngeneic tumors; JBI-097 20 mg/kg PO in combination with anti-PD-L1 100 μg/animal IP Q4D): 76%
- TGI (CT-26 syngeneic tumors; JBI-097 alone, 20 mg/kg PO, 5 days on 2 days off): 50%
- CD11b modulation (mRNA) (CD11b): strong and sustained up-regulation
- CD86 modulation (mRNA) (CD86): strong and sustained up-regulation
- GFI1b modulation (mRNA) (GFI1b): strong and sustained up-regulation
